From patent US20080015166A1, “Barrier Integrity in Hiv Patients” (N.V. Nutricia, priority 2004, published 2008)

Columns and labels:
[1] = test system: intestinal epithelial cell lines T84 monolayers; assay: Effect of LC-PUFA on basal (spontaneous) barrier integrity: TER and 4 kD FITC dextran flux in T84 monolayers; format: cell-based, human; details: for effect on epithelial resistance (in words) / effect on molecular flux (in words): 100 μM, 72 hr, Table 1; for basal barrier integrity (TER), FIG. 1 (in words): time and dose (10 μM and 100 μM) dependent
Experimental: (§1) Monolayers (MC) of intestinal epithelial cell lines T84 (American Type Culture Collection (ATTC), Manassas, USA) were cultured on transwell filters (Corning, Costar B V, The Netherlands) allowing both mucosal and serosal sampling and stimulation of human intestinal epithelial cells. Two weeks post confluency the monolayers were incubated in the luminal compartment with polyunsaturated fatty acids ARA (arachidonic acid; 5,8,11,14-eicosatetraenoic acid), DHA (cis-4,7,10,13,16,19 docosahexaenoic acid), EPA (eicosapentaenoic acid) or control palmitic (C 16:0) acid (Palm) (Sigma, St. Louis, USA). The latter procedure was chosen to mimic the in vivo administration route of the dietary compounds. Cells were incubated with ARA, DHA, EPA, GLA or palmitic acid for 0, 24, 48 and 72 hr at different concentrations (10 μM and 100 μM). Experiments were performed to evaluate basal barrier integrity. The epithelial barrier function was determined by measuring the transepithelial resistance (TER, Ω.cm^2) was measured by epithelial volt-ohm meter (EVOM; World Precision Instruments, Germany) and permeability for 4 kD FITC dextran (paracellular permeability marker, Sigma, USA). Resistance (. Epithelial permeability for 4 kDa FITC-dextran was determined as follows. Prior to dextran fluxes the medium was refreshed with culture medium without phenol red for one hour followed by addition of 5 μl (stock 100 mg/ml) 4 kDa FITC-dextran to the lumenal compartment. After 30 min incubation 100 μl sample was collected from the serosal compartment and the fluorescent signal measured at excitation wavelength 485 nm and emission 520 nm (FLUOstar Galaxy®, BMG Labtechnologies, USA). FITC-dextran fluxes were calculated as pmol FITC-dextran/cm^2/h. Statistical analyses were performed using the ANOVA (SPSS version 10).

[2] = test system: intestinal epithelial cell lines T84 monolayers incubated with IL-4; assay: Effect of LC-PUFA on IL-4 mediated barrier disruption: TER and flux in T84 monolayers; format: cell-based, human; details: for Permeability (IL-4 Flux) / Resistance (IL-4 TER) / effect on IL-4 mediated barrier disruption (flux), in words: 100 μM; for Permeability (IL-4 Flux) / Resistance (IL-4 TER): 48 hr pre-incubation then 48 hr co-incubation with IL-4 2 ng/ml; for effect on IL-4 mediated barrier disruption (flux), in words: Table 2; for IL-4 mediated barrier destruction (Flux), FIG. 2 (in words): time and dose (10 μM and 100 μM) dependent, 4 kD dextran flux
Experimental: as §1
Monolayers (MC) of intestinal epithelial cell lines T84 (ATCC, USA) were cultured on transwell filters (Corning, Costar B V, The Netherlands) allowing both mucosal and serosal sampling and stimulation of human intestinal epithelial cells. Two weeks post confluency the monolayers were incubated in the presence of IL-4 (2 ng/ml, serosal compartment, Sigma, USA ) with or without polyunsaturated fatty acids ARA, DHA, GLA, EPA, or control palmitic acid (10 μM or 100 μM, mucosal compartment, Sigma, St. Louis, USA). Cells were pre-incubated with GLA, ARA, DHA, EPA, or palmitic acid for 48 hr prior to the IL-4 incubation. The co-incubation of PUFA's and palmetic acid with IL-4 was continued for another 48 hr; while culture medium and additives were changed every 24 hr. The epithelial barrier function was determined by measuring the transepithelial resistance (TER) and permeability as described in example 1. Statistical evaluation was performed as described in example 1.

[3] = test system: MUC-2 expression in intestinal epithelial T84 cells; details: 24 h, 0.025-4.0 mM, MC T84 and CC T84, compared to propionate and butyrate

CCCCCC=CCC=CCC=CCC=CCCCC(=O)O [ARA, 5,8,11,14-eicosatetraenoic acid]
effect on epithelial resistance (in words) [1]: improve epithelial resistance | effect on molecular flux (in words) [1]: reduce the molecular flux | basal barrier integrity (TER), FIG. 1 (in words) [1]: increased resistance | Permeability (IL-4 Flux) [2]: 273 ↓ pmol FITC-dextran/cm^2/h | Resistance (IL-4 TER) [2]: 337 ↑ Ω.cm^2 | effect on IL-4 mediated barrier disruption (flux), in words [2]: inhibit the increased flux caused by IL-4 | IL-4 mediated barrier destruction (Flux), FIG. 2 (in words) [2]: decreased 4 kD dextran flux

CCC=CCC=CCC=CCC=CCC=CC/C=C\CCC(=O)O [DHA, cis-4,7,10,13,16,19 docosahexaenoic acid]
effect on epithelial resistance (in words) [1]: improve epithelial resistance | effect on molecular flux (in words) [1]: reduce the molecular flux | basal barrier integrity (TER), FIG. 1 (in words) [1]: increased resistance | Permeability (IL-4 Flux) [2]: 304 ↓ pmol FITC-dextran/cm^2/h | Resistance (IL-4 TER) [2]: 328 ↑ Ω.cm^2 | effect on IL-4 mediated barrier disruption (flux), in words [2]: inhibit the increased flux caused by IL-4 | IL-4 mediated barrier destruction (Flux), FIG. 2 (in words) [2]: decreased 4 kD dextran flux

CC/C=C\C/C=C\C/C=C\C/C=C\C/C=C\CCCC(=O)O [EPA, eicosapentaenoic acid]
Permeability (IL-4 Flux) [2]: 236 ↓ pmol FITC-dextran/cm^2/h | Resistance (IL-4 TER) [2]: 375 ↑ Ω.cm^2

CCCCC/C=C\C/C=C\C/C=C\CCCCC(=O)O [GLA, gamma linolenic acid]
effect on epithelial resistance (in words) [1]: improve epithelial resistance | effect on molecular flux (in words) [1]: reduce the molecular flux | basal barrier integrity (TER), FIG. 1 (in words) [1]: increased resistance | Permeability (IL-4 Flux) [2]: 360 ↓ pmol FITC-dextran/cm^2/h | Resistance (IL-4 TER) [2]: 331 ↑ Ω.cm^2 | effect on IL-4 mediated barrier disruption (flux), in words [2]: inhibit the increased flux caused by IL-4 | IL-4 mediated barrier destruction (Flux), FIG. 2 (in words) [2]: decreased 4 kD dextran flux

CCCCCCCCCCCCCCCC(=O)O [Palmitic acid, palmitic acid, reference compound]
effect on epithelial resistance (in words) [1]: opposite effects | effect on molecular flux (in words) [1]: opposite effects | effect on IL-4 mediated barrier disruption (flux), in words [2]: detrimental effect

CC(=O)O [acetate]
stimulating MUC-2 expression (mucus production), FIG. 4 (in words) [3]: more potent
